Source: patent US8338599B2, “Compounds having a potentiating effect on the activity of ethionamide and uses thereof” (priority 2006, dated 2012)
In brackets after ≈: the same amount, converted by molar mass. Several values for one entry are separate records, joined by “and”; a condition that tells them apart may be missing. Equal entries are not always repeated.

Key:
M. tuberculosis H37Rv = assay: Ethionamide-potentiating effect, fluorimetric detection on Bactec MGIT 960; format: cell-based; conditions: for bacterial growth-inhibiting properties of the compound alone: 25 μM, no ETH (lines A5 and D3); for MIC: Mycobacterium tuberculosis, H37RV, read-out: MIC for ETH in the presence of compound; for MIC / potentiation of the ethionamide activity (factor): compound 25 μM
EthR protein [1] = molecular target: T1, EthR protein (Mycobacterium tuberculosis, UniProt P9WMC1); assay: Inhibition of interaction of EthR with its target DNA sequence (BIAcore); format: binding, M. tuberculosis H37Rv; conditions: compound 3 μM, EthR 540 nM, 37° C.
Procedure: a) Measurement of the Activity of the Compounds on the Inhibition of Interaction of EthR with its Target DNA Sequence
The in vitro measurements of inhibition of binding of the EthR protein to its target DNA sequence were performed on a machine of BIAcore®2000 type (AB, Uppsala, Sweden).
The chips used are CM5 chips sold by the company GE Healthcare. Both the channels of a chip were activated with a solution containing 200 mM of EDC(N-ethyl-N′-(3-[…])carbodiimide) and 50 mM of NHS (N-hydroxysuccinimide). Next, streptavidin (500 ng/μl in a solution containing 10 mM of sodium acetate (pH 3.5) was injected over 12 minutes at a flow rate of 10 μl/minute. The 106-base-pair biotinylated DNA fragment corresponding to the ethA-R intergene region was deposited on one of the two channels of the chip at a rate of 200 ng/ml in order to obtain stable binding of streptavidin corresponding to 50 RU (resonance units). This DNA fragment was obtained by PCR using the chromosomal DNA of M. tuberculosis H37Rv as matrix and O-270: 5′-[…]-3′ (SEQ ID: No. 1) and O-271: 5′-biotin-[…]-3′ (SEQ ID: No. 2). The second channel was functionalized with a 113-base-pair biotinylated DNA fragment (fragment +14 to +127 of the bla gene of E. coli PCR-amplified using the following oligonucleotides: O-343: 5′-[…]-3′ (SEQ ID: No. 3) and O-344: 5′-biotin-[…]-3′ (SEQ ID: No. 4).
Measurement of the binding of the EthR protein to the immobilized DNA was performed at 37° C. in a reference buffer containing 10 mM of Tris-HCl (pH=7.5), 200 mM of NaCl, 0.1 mM of EDTA, 1 mM of DTT and 1% of DMSO at a flow rate of 20 μl/minute. The specific interaction (SI) of EthR with the 106-base-pair double-stranded DNA sequence, expressed in resonance units, corresponds to the difference in signal observed between the two channels.
For each inhibition measurement, the compounds of the invention are dissolved in the reference buffer at a concentration of 3 μM. The compounds of the invention are then incubated in the presence of the protein (540 nM) at 37° C. for 5 minutes, and each solution is then injected onto the two channels of the chip for 3 minutes at a flow rate of 20 μl/minute. The inhibition values are calculated at the end of the injection according to the following equation: […]
in which SIEthR corresponds to the value measured without ligand and SIEthR+ligand corresponds to the value measured in the presence of to ligand.

[2] = Measurement of the solubility (PBS pH 7.4 vs methanol, LC/MS); format: physicochemical; conditions: pH 7.4, aqueous buffer, kinetic from dmso stock
Procedure: e) Measurement of the Solubility of the Compounds of the Invention
40 μl of a solution containing a compound of the invention at a concentration of 10 mM in DMSO were diluted in 1.960 ml of methanol, and another 40 μl were diluted in 1.960 ml of a PBS solution containing 675 mM of NaCl, 13.5 mM of KCl, 50 mM of Na2HPO4.2H2O and 10 mM of KH2PO4 at a pH of 7.4. The two solutions were stirred for 24 hours at room temperature, and then centrifuged for 5 minutes and filtered through 0.45 μm filters. 20 μl of each solution were then diluted in 118 μl of methanol and analyzed by liquid chromatography coupled to mass spectrometry (LC/MS). The solubility was determined by the ratio of the areas under the curve of the mass signal for the compound of the invention, according to the following equation: […]

EthR protein [3] = molecular target: T1, EthR protein; assay: In vitro measurement of the IC50 (EthR/DNA binding, BIAcore); design: species or system M. tuberculosis H37Rv
Procedure: b) In Vitro Measurement of the IC50 of the Compounds of the Invention.
The in vitro measurement of this datum was performed according to the same principle as for the measurement of inhibition of the EthR/DNA binding using the BIAcore technique.
The specific interaction between EthR and the specific 106-bp DNA fragment was measured on a range of six concentrations of the compounds of the invention, this range extending from 0.11 μM to 27 μM. The IC50 values are then extrapolated from the sigmoid curves obtained.

M. bovis BCG = format: cell-based, M. bovis BCG 1173P2; conditions: from MIC of ETH alone (6 μM) and MIC of ETH with 25 μM compound
[4] = strain 1%, no ETH, ligand 25 μM
[5] = strain 100%, ETH 0.025 μg/mL + ligand 25 μM
[6] = strain 100%, ETH 0.05 μg/mL + ligand 25 μM
[7] = strain 100%, ETH 0.1 μg/mL + ligand 25 μM
[8] = strain 100%, ETH 0.25 μg/mL + ligand 25 μM
[9] = strain 100%, no ETH, ligand 25 μM

T1 sequence (P9WMC1 whole entry, looked up): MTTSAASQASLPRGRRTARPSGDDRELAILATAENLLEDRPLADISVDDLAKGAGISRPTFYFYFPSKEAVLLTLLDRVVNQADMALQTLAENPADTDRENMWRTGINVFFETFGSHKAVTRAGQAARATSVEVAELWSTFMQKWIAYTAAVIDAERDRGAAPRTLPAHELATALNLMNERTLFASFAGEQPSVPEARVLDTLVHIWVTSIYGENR

## O=C(CC1CC1)N1CCC(c2nc(-c3cccs3)no2)CC1 [Compound 33, 2-cyclopropyl-1-[4-(3-thiophen-2-yl[1,2,4]oxadiazol-5-yl)piperid-1-yl]ethanone]
M. tuberculosis H37Rv
  bacterial growth-inhibiting properties of the compound alone: absence of bacterial growth-inhibiting properties
  MIC: 0.05 µg/mL and 0.3 µM
M. tuberculosis H37Rv; [4]
  State: R
  fluorescence reading D + 0: 0
  fluorescence reading D + 1: 0
  fluorescence reading D + 5 (first column, c6): 0
  fluorescence reading D + 5 (second column, c7): 0
  fluorescence reading D + 6: 1
  fluorescence reading D + 7 (first column, c9): 180
  fluorescence reading D + 7 (second column, c10): 319
  fluorescence reading J + 8: 400
M. tuberculosis H37Rv; [5]
  State: R
  fluorescence reading D + 0: 0
  fluorescence reading D + 1: 0
  fluorescence reading D + 5 (first column, c6): 200
  fluorescence reading D + 5 (second column, c7): 353
  fluorescence reading D + 6: 400
  fluorescence reading D + 7 (first column, c9): 400
  fluorescence reading D + 7 (second column, c10): 400
  fluorescence reading J + 8: 400
M. tuberculosis H37Rv; [6]
  State: S
  fluorescence reading D + 0: 0
  fluorescence reading D + 1: 0
  fluorescence reading D + 5 (first column, c6): 0
  fluorescence reading D + 5 (second column, c7): 0
  fluorescence reading D + 6: 0
  fluorescence reading D + 7 (first column, c9): 0
  fluorescence reading D + 7 (second column, c10): 0
  fluorescence reading J + 8: 0
M. tuberculosis H37Rv; [7]
  State: S
  fluorescence reading D + 0: 0
  fluorescence reading D + 1: 0
  fluorescence reading D + 5 (first column, c6): 0
  fluorescence reading D + 5 (second column, c7): 0
  fluorescence reading D + 6: 0
  fluorescence reading D + 7 (first column, c9): 0
  fluorescence reading D + 7 (second column, c10): 0
  fluorescence reading J + 8: 0
M. tuberculosis H37Rv; [8]
  State: S
  fluorescence reading D + 0: 0
  fluorescence reading D + 1: 0
  fluorescence reading D + 5 (first column, c6): 0
  fluorescence reading D + 5 (second column, c7): 0
  fluorescence reading D + 6: 0
  fluorescence reading D + 7 (first column, c9): 0
  fluorescence reading D + 7 (second column, c10): 0
  fluorescence reading J + 8: 0
M. tuberculosis H37Rv; [9]
  State: R
  fluorescence reading D + 0: 0
  fluorescence reading D + 1: 0
  fluorescence reading D + 5 (first column, c6): 400
  fluorescence reading D + 5 (second column, c7): 400
  fluorescence reading D + 6: 400
  fluorescence reading D + 7 (first column, c9): 400
  fluorescence reading D + 7 (second column, c10): 400
  fluorescence reading J + 8: 400
EthR protein [1]
  inhibition at 3 µM: 71%
[2]
  solubility at 24 h: 63.5 µg/mL (≈ 200 µM)
EthR protein [3]
  IC50: 1120 nM
M. bovis BCG
  Potentiation %: 2500%

## O=C(Cc1cccs1)N1CCC(c2nc(-c3cccs3)no2)CC1 [Compound 43, 2-thiophen-2-yl-1-[4-(3-thiophen-2-yl[1,2,4]oxadiazol-5-yl)piperid-1-yl]ethanone]
M. tuberculosis H37Rv
  bacterial growth-inhibiting properties of the compound alone: absence of bacterial growth-inhibiting properties
  MIC: < 0.025 µg/mL and < 0.15 µM
  potentiation of the ethionamide activity (factor): ≥ 40 fold
M. tuberculosis H37Rv; listed as compound 43
  potentiation of the ethionamide activity (factor): about 40 fold
M. tuberculosis H37Rv; [4]
  State: R
  fluorescence reading D + 0: 0
  fluorescence reading D + 1: 0
  fluorescence reading D + 5 (first column, c6): 0
  fluorescence reading D + 5 (second column, c7): 0
  fluorescence reading D + 6: 0
  fluorescence reading D + 7 (first column, c9): 168
  fluorescence reading D + 7 (second column, c10): 292
  fluorescence reading J + 8: 400
M. tuberculosis H37Rv; [5]
  State: S
  fluorescence reading D + 0: 0
  fluorescence reading D + 1: 0
  fluorescence reading D + 5 (first column, c6): 0
  fluorescence reading D + 5 (second column, c7): 0
  fluorescence reading D + 6: 0
  fluorescence reading D + 7 (first column, c9): 0
  fluorescence reading D + 7 (second column, c10): 0
  fluorescence reading J + 8: 0
M. tuberculosis H37Rv; [6]
  State: S
  fluorescence reading D + 0: 0
  fluorescence reading D + 1: 0
  fluorescence reading D + 5 (first column, c6): 0
  fluorescence reading D + 5 (second column, c7): 0
  fluorescence reading D + 6: 0
  fluorescence reading D + 7 (first column, c9): 0
  fluorescence reading D + 7 (second column, c10): 0
  fluorescence reading J + 8: 0
M. tuberculosis H37Rv; [7]
  State: S
  fluorescence reading D + 0: 0
  fluorescence reading D + 1: 0
  fluorescence reading D + 5 (first column, c6): 0
  fluorescence reading D + 5 (second column, c7): 0
  fluorescence reading D + 6: 0
  fluorescence reading D + 7 (first column, c9): 0
  fluorescence reading D + 7 (second column, c10): 0
  fluorescence reading J + 8: 0
M. tuberculosis H37Rv; [8]
  State: S
  fluorescence reading D + 0: 0
  fluorescence reading D + 1: 0
  fluorescence reading D + 5 (first column, c6): 0
  fluorescence reading D + 5 (second column, c7): 0
  fluorescence reading D + 6: 0
  fluorescence reading D + 7 (first column, c9): 0
  fluorescence reading D + 7 (second column, c10): 0
  fluorescence reading J + 8: 0
M. tuberculosis H37Rv; [9]
  State: R
  fluorescence reading D + 0: 0
  fluorescence reading D + 1: 0
  fluorescence reading D + 5 (first column, c6): 400
  fluorescence reading D + 5 (second column, c7): 400
  fluorescence reading D + 6: 400
  fluorescence reading D + 7 (first column, c9): 400
  fluorescence reading D + 7 (second column, c10): 400
  fluorescence reading J + 8: 400
EthR protein [1]
  inhibition at 3 µM: 93%
[2]
  solubility at 24 h: 26.9 µg/mL (≈ 74.8 µM)
EthR protein [3]
  IC50: 520 nM
M. bovis BCG
  Potentiation %: 2500%

## N#CCC(=O)N1CCC(c2nc(-c3cccs3)no2)CC1 [Compound 22, 3-oxo-3-[4-(3-thiophen-2-yl[1,2,4]oxadiazol-5-yl)piperid-1-yl]propionitrile]
M. tuberculosis H37Rv
  potentiation of the ethionamide activity (factor): ~10 fold
M. tuberculosis H37Rv; listed as compound 22
  potentiation of the ethionamide activity (factor): about 10 fold
EthR protein [1]
  inhibition at 3 µM: 28%
[2]
  solubility at 24 h: 60.4 µg/mL (≈ 200 µM)
EthR protein [3]
  IC50: 3330 nM
M. bovis BCG
  Potentiation %: 2500%

## O=C(Nc1cccs1)N1CCC(c2nc(-c3cccs3)no2)CC1 [Compound 50, 4-(3-thiophen-2-yl[1,2,4]oxadiazol-5-yl)piperidine-1-carboxylic acid thiophen-2-ylamide]
EthR protein [1]
  inhibition at 3 µM: 96%
[2]
  solubility at 24 h: 2.9 µg/mL (≈ 8.05 µM)
EthR protein [3]
  IC50: 440 nM

## C=CCCC(=O)N1CCC(c2nc(-c3cccs3)no2)CC1 [Compound 20, 1-[4-(3-thiophen-2-yl[1,2,4]oxadiazol-5-yl)piperid-1-yl]pent-4-en-1-one]
M. tuberculosis H37Rv
  potentiation of the ethionamide activity (factor): about 20 fold
EthR protein [1]
  inhibition at 3 µM: 53%
[2]
  solubility at 24 h: 63.5 µg/mL (≈ 200 µM)
EthR protein [3]
  IC50: 1000 nM
M. bovis BCG
  Potentiation %: 2500%
